Values after ≈ are worked out from the molar mass of the structure shown.
Legend:
[1] = system: adult patients with moderate-to-severe CHE; experiment: DELTA 1 and DELTA 2 together (pooled analyses and statements made for both trials); type: in vivo, human
Experimental: In a pooled analysis of both trials, changes in EQ-5D scores from baseline to week 16 were assessed in all patients and in a post-hoc analysis of patients achieving clinical responses (defined as Hand Eczema Area and Severity Index (HECSI)-50, -75, and -90, Investigator's Global Assessment for CHE treatment success [IGA-CHE TS; clear or almost clear skin with a ≥2-step improvement from baseline] and ≥4-point improvements in Hand Eczema Symptom Diary (HESD) itch and pain scores.
DELTA 1 and DELTA 2 were phase 3 trials of identical design. […] Data were pooled from both trials and changes in DLQI scores were assessed from baseline to week 16 in all patients and in a post-hoc analysis of patients achieving clinical responses, defined as Hand Eczema Area and Severity Index (HECSI)-50, -75, and -90, Investigator's Global Assessment for CHE treatment success (IGA-CHE TS; a score of 0/1 with a ≥2-step improvement from baseline), and ≥4-point improvements in Hand Eczema Symptom Diary (HESD) itch and pain scores.
The Hand Eczema Symptom eDiary (HESD) captured patient-reported severity of itch and pain over the past 24 hours on an 11-point numeric rating scale (0=no itch/pain to 10=severe itch/pain). Changes in itch and pain from baseline were assessed daily during Week (W)1 and weekly from W1-16.

[2] = Systemic exposure in DELTA 2: plasma concentrations of delgocitinib after cream application (LC/MS); type: in vivo, human; conditions: for plasma concentration of delgocitinib (geometric mean): 2-6 hours after application of cream 20 mg/g twice daily
Description: (§1) Data are reported as geometric means.

Plasma protein binding = type: in vitro ADME
[3] = Half-life following repeated topical administration of delgocitinib cream; type: in vivo; conditions: human, plasma, 20 mg/g
[4] = system: IL-4 release in whole-blood; experiment: in vitro IL-4 release assay in whole-blood of healthy volunteers; type: cell-based; conditions: Homo sapiens; whole-blood of healthy volunteers (n=4)
Description: as §1

[5] = Phase 1 trial, single oral doses of delgocitinib in healthy volunteers; type: in vivo; conditions: human, plasma, single oral dose 1.5 mg, read-out: peak systemic exposure (geometric mean Cmax)
Description: as §1

## C[C@H]1CN(C(=O)CC#N)[C@]12CCN(c1ncnc3[nH]ccc13)C2 [delgocitinib, Delgocitinib]
[1]; baseline to trial completion
  rates of all AEs, AEs related to study drug and AEs leading to discontinuation of study drug, versus cream vehicle: numerically higher with cream vehicle compared to delgocitinib
[1]; pooled
  onset of itch and pain reduction: Early onset of itch and pain reduction was observed within W1
[2]; DELTA 2
  decrease of detectable absorption by week 16: 48%
[2]; DELTA 2, Week 1
  plasma concentration of delgocitinib (geometric mean): 0.21 ng/mL
[2]; DELTA 2, Week 4
  plasma concentration of delgocitinib (geometric mean): 0.20 ng/mL
[2]; DELTA 2, Week 16
  plasma concentration of delgocitinib (geometric mean): 0.12 ng/mL
[2]; DELTA 2, week 16
  mean plasma concentration in the remaining subjects with detectable absorption: 0.11 ng/mL
[2]; given as Delta 2
  steady state reached: ≤ 8 days
[2]; human, plasma, topical, 20 mg/g, given as Delta 2, day 8, read-out: area under the concentration-curve from time 0 to 12 hours (AUC0-12), geometric mean
  AUC(0-t): 3.7 ng·h/mL
[2]; human, plasma, topical, 20 mg/g, given as Delta 2, day 8, read-out: geometric mean maximum plasma concentration (Cmax)
  Cmax: 0.46 ng/mL
Plasma protein binding
  fraction unbound: 0.71 to 0.78
[3]
  half-life: 20.3 h
[4]
  IC50: 0.0172 µg/mL (≈ 0.0554 µM)
[5]
  Cmax: 7.2 ng/mL
